This note sets out measurements from patent publication US10799605B2 (3B PHARMACEUTICALS GMBH, priority 2014, dated 2020).

The structures appear in SMILES notation. Read-outs that look alike come from different tables or passages of the source.

Data set [1] is described as follows: Plasma protein binding assay, mouse. The class given is in vitro ADME. Conditions: plasma proteins, 4 h at 37° C., equilibrium dialysis, read-out: % bound [mouse] (converted). An excerpt:
A drug's efficiency may be affected by the degree to which it binds to the proteins within blood plasma. A drug in blood exists in two forms: bound and unbound. Depending on a specific drug's affinity for plasma protein, a proportion of the drug may become bound to plasma proteins, with the remainder being unbound. […] It is also the fraction that may be metabolized and/or excreted. Protein binding can influence the drug's biological half-life in the body. The bound portion may act as a reservoir or depot from which the drug is slowly released as the unbound form. In order to determine the binding characteristics of the compounds of the present invention as listed in the following Table to human or mouse plasma protein, respectively, a plasma protein binding assay was carried out. All compounds have a plasma protein binding that is appropriate for diagnostic, therapeutic and theranostic use of these compounds according to the present invention.
The binding of test substances to human and murine plasma proteins was tested by Cerep (Celle l'Evescault, France; Catalog reference 2194 [human] and 2223 [mouse]) according to Banker et al., J. Pharm. Sci., 2003, 92, 967-974. Test compounds were incubated with human or murine plasma proteins for 4 h at 37° C. Subsequently, the fraction of compound bound to plasma proteins was determined by equilibrium dialysis and HPLC-MS/MS detection. […]
In general terms: In equilibrium dialysis only unbound substance equilibrates across the membrane.

The target in a further data set is M1 (h) (Homo sapiens (Human), UniProt P11229). The experiment in a line: ExpresSProfile: muscarinic receptor 1, antagonist radioligand. In kind it is binding. Conditions: Test Concentration 1.0E−05 M.
Another data set concerns the target D2S (h) (Homo sapiens (Human), UniProt P14416). The experiment in a line: ExpresSProfile: dopamine receptor 2S, antagonist radioligand. The class given is binding. Conditions: Test Concentration 1.0E−05 M.
The next data set deals with NK3 (h) (Homo sapiens (Human), UniProt P29371). The experiment in a line: ExpresSProfile: neurokinin receptor 3, antagonist radioligand. The class given is binding. Conditions: Test Concentration 1.0E−05 M.
Another data set has as its target NTR1 (Homo sapiens (Human), UniProt P30989). Nature of the data set: Radioligand binding assay NTR1 (example part II). Conditions: 0.05 nM 125I-(Tyr3-neurotensin), 60 min at 4° C.; read-out: IC50 [nM] RLB. The procedure, abridged:
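Membranes from CHO cells recombinantly expressing human NTR1 incubated with 0.05 nM 125I-(Tyr3-neurotensin) and serially diluted test compounds. Bound radioligand quantified by scintillation counting; displacement expressed as IC50.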

[2] abbreviates: read-out: % Inhibition of Control Specific Binding.
The mark [3] stands for this setting: read-out: % of Control Specific Binding 1st.
Setting [4] is: read-out: % of Control Specific Binding 2nd.
Setting [5] is: read-out: % of Control Specific Binding Mean.

Chain of M1 (h) (P11229 whole entry): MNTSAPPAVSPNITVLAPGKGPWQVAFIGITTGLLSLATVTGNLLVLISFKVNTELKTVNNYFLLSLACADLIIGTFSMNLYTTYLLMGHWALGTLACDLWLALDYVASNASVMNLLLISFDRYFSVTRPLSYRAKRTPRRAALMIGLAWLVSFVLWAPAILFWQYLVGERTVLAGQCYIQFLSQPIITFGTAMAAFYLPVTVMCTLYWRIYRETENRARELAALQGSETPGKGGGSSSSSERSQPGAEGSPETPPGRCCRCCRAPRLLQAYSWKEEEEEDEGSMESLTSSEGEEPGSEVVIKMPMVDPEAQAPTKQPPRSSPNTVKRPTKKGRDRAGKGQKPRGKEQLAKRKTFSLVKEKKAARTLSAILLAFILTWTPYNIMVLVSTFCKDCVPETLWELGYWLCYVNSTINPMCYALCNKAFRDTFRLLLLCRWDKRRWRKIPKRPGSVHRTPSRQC
Chain of NK3 (h) (P29371 whole entry): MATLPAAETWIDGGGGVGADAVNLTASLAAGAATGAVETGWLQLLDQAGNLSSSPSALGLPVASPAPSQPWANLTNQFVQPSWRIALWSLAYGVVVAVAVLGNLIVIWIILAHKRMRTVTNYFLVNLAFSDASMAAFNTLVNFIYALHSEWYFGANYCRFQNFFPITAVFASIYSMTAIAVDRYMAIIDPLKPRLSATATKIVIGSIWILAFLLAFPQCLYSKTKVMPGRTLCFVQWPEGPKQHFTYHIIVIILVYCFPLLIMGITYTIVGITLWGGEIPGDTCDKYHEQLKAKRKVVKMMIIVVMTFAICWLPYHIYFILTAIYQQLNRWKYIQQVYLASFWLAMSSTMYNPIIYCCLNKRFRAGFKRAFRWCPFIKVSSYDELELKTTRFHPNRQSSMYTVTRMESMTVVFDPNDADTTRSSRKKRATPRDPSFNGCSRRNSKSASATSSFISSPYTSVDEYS
Chain of D2S (h) (P14416 other isoform, or with tags, fused parts or gaps): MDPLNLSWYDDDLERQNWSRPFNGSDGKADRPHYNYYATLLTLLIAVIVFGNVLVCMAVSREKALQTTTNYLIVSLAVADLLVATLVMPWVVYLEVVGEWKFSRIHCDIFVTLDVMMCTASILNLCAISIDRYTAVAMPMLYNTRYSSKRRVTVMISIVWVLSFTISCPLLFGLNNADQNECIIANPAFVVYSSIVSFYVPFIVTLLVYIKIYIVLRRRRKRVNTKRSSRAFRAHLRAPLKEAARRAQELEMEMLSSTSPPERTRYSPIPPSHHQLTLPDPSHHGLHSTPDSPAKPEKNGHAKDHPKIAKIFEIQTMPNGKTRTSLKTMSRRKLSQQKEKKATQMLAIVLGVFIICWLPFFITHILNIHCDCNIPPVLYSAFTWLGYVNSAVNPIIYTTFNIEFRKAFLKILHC
Chain of NTR1 (P30989 whole entry): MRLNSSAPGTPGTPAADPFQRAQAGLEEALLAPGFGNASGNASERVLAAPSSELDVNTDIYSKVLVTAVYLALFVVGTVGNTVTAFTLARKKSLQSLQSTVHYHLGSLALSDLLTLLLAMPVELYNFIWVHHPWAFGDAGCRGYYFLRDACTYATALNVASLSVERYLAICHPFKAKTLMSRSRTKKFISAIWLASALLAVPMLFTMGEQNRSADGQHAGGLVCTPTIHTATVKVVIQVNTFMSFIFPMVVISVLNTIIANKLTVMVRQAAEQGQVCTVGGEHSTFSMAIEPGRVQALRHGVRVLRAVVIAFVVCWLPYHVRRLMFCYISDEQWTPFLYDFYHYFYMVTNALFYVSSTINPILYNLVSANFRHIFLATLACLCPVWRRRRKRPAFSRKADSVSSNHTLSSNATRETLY

One may read the inhibition as the relative decrease from the control value, in per cent. A word on the IC50: it is the concentration at which inhibition is half-maximal. Consider `COc1cccc(OC)c1-c1cc(C(=O)NC2(C(=O)O)C3CC4CC(C3)CC2C4)nn1-c1ccc(C(=O)N(C)CCCN(C)CCCN(C)C(=O)CN2CCN(CC(=O)O)CCN(CC(=O)O)CCN(CC(=O)O)CC2)cc1C(C)C` (centres unmarked) [(IIIa), 2-{[1-{4-[(3-{[3-(DOTA-methyl-amino)-propyl]-methyl-amino}-propyl)-methyl-carbamoyl]-2-isopropyl-phenyl}-5-(2,6-dimethoxy-phenyl)-1H-pyrazole-3-carbonyl]-amino}-adamantane-2-carboxylic acid], for which the fraction unbound at 4 h in data set [1] was 0.11. Moreover, the figures for the inhibition at 10 µM at M1 (h) (setting [2]), on D2S (h) (setting [2]) and at NK3 (h) (setting [2]) were -25%, -9% and -1%, respectively. Besides, the remaining activity at 10 µM at M1 (h) (setting [3]) came to 111%; on M1 (h) (setting [4]), 138%; on M1 (h) (setting [5]), 125%; at D2S (h) (setting [3]) it was 113%; on D2S (h) (setting [4]), 105%; on D2S (h) (setting [5]), 109%. Also, the results for the remaining activity at 10 µM at NK3 (h) (setting [3]), at NK3 (h) (setting [4]) and on NK3 (h) (setting [5]) were 102%, 98.5% and 100%, respectively. Further, the half-inhibitory concentration (IC50) on NTR1 turned out to be 2.9 nM.
